Measured values published in PubChem BioAssay (NCI).
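Here, GI50 denotes the concentration required for 50% inhibition of growth. TGI denotes the concentration required for complete inhibition of growth.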

How the values were obtained:
Assay in all cases: NCI tumour cell line growth inhibition, 384-well format
[1] = system: MDA-MB-231 breast
[2] = system: BT-549 breast
[3] = system: NCI-H322M lung
[4] = system: HS 578T breast
[5] = system: SF-539 CNS
[6] = system: OVCAR-3 ovarian
[7] = system: HOP-62 NSCLC
[8] = system: ACHN renal
[9] = system: NCI-H522 lung
[10] = system: MALME-3M melanoma
[11] = system: OVCAR-5 ovarian
[12] = system: SK-OV-3 ovarian
[13] = system: OVCAR-4 ovarian
[14] = system: NCI-H23 lung
[15] = system: A549 NSCLC
[16] = system: KM12 colon
[17] = system: K-562 leukemia
[18] = system: OVCAR-8 ovarian
[19] = system: A498 renal
[20] = system: HOP-92 NSCLC
[21] = system: MDA-MB-468 breast
[22] = system: TK-10 renal
[23] = system: SF-268 CNS
[24] = system: EKVX NSCLC
[25] = system: SK-MEL-5 melanoma
[26] = system: RXF 393 renal
[27] = system: SW-620 colon
[28] = system: NCI/ADR-RES ovarian
[29] = system: SNB-75 CNS
[30] = system: 786-0 renal
[31] = system: CCRF-CEM leukemia
[32] = system: M14 melanoma
[33] = system: DU-145 prostate
[34] = system: MCF7 breast
[35] = system: MDA-MB-435 melanoma
[36] = system: UO-31 renal
[37] = system: SN12C renal
[38] = system: IGROV1 ovarian
[39] = system: SF-295 CNS
[40] = system: SR leukemia
[41] = system: COLO 205 colon
[42] = system: SK-MEL-28 melanoma
[43] = system: SK-MEL-2 melanoma
[44] = system: HCC-2998 colon
[45] = system: MOLT-4 leukemia
[46] = system: U251 glioblastoma
[47] = system: SNB-19 CNS

CC(C)(O)CNc1nc(Nc2ccnc(C(F)(F)F)c2)nc(-c2cccc(C(F)(F)F)n2)n1
GI50 [1]: 18.7 µM
TGI [1]: 34.5 µM
GI50 [2]: 16 µM
TGI [2]: 29.7 µM
GI50 [3]: 16.1 µM
TGI [3]: 31.4 µM
GI50 [4]: 14.6 µM
TGI [4]: 29.5 µM
GI50 [5]: 16.3 µM
TGI [5]: 30.9 µM
GI50 [6]: 17.6 µM
TGI [6]: 32.9 µM
GI50 [7]: 15.1 µM
TGI [7]: 28.8 µM
GI50 [8]: 20.9 µM
TGI [8]: 40.5 µM
GI50 [9]: 17.5 µM
TGI [9]: 35.4 µM
GI50 [10]: 18.4 µM
TGI [10]: 33.9 µM
GI50 [11]: 27.3 µM
TGI [11]: 73.5 µM
GI50 [12]: 20.9 µM
TGI [12]: 40.9 µM
GI50 [13]: 19.7 µM
TGI [13]: 36.3 µM
GI50 [14]: 18.7 µM
TGI [14]: 35.6 µM
GI50 [15]: 17.3 µM
TGI [15]: 35.4 µM
GI50 [16]: 17.9 µM
TGI [16]: 34.8 µM
GI50 [17]: 14.7 µM
TGI [17]: 28.7 µM
GI50 [18]: 17.4 µM
TGI [18]: 38.3 µM
GI50 [19]: 19.9 µM
TGI [19]: 39.9 µM
GI50 [20]: 19.3 µM
TGI [20]: 37.7 µM
GI50 [21]: 20.3 µM
TGI [21]: 35 µM
GI50 [22]: 19.8 µM
TGI [22]: 43.4 µM
GI50 [23]: 20.2 µM
TGI [23]: 40.3 µM
GI50 [24]: 19 µM
TGI [24]: 38.5 µM
GI50 [25]: 13.8 µM
TGI [25]: 26.8 µM
GI50 [26]: 12.3 µM
TGI [26]: 27.5 µM
GI50 [27]: 24.4 µM
TGI [27]: 55.2 µM
GI50 [28]: 13.9 µM
TGI [28]: 27.5 µM
GI50 [29]: 18.8 µM
TGI [29]: 37.2 µM
GI50 [30]: 17.4 µM
TGI [30]: 37.6 µM
GI50 [31]: 14.4 µM
TGI [31]: 28.1 µM
GI50 [32]: 19.8 µM
TGI [32]: 35.2 µM
GI50 [33]: 16.3 µM
TGI [33]: 31.6 µM
GI50 [34]: 15.9 µM
TGI [34]: 30.5 µM
GI50 [35]: 19.9 µM
TGI [35]: 37.7 µM
GI50 [36]: 21.1 µM
TGI [36]: 40.9 µM
GI50 [37]: 19.8 µM
TGI [37]: 40.8 µM
GI50 [38]: 18.6 µM
TGI [38]: 37.4 µM
GI50 [39]: 16 µM
TGI [39]: 29.8 µM
GI50 [40]: 4.82 µM
TGI [40]: 17.5 µM
GI50 [41]: 18.5 µM
TGI [41]: 34.8 µM
GI50 [42]: 16.9 µM
TGI [42]: 31 µM
GI50 [43]: 265 nM
TGI [43]: 1170 nM
GI50 [44]: 16.3 µM
TGI [44]: 30.4 µM
GI50 [45]: 13.7 µM
TGI [45]: 26.8 µM
GI50 [46]: 18.8 µM
TGI [46]: 38.7 µM
GI50 [47]: 32.3 µM
TGI [47]: 87.2 µM
